# Assay results taken from US10195282B2, “Use of alginate formulation for intraincisional drug delivery” (UNIVERSITY OF SOUTHERN CALIFORNIA, priority 2014, dated 2019).
# Non-standard residues stand in square brackets, D forms with d. Residues, ends and D or L forms follow the SMILES beside them. Nle = CCCC[C@H](N)C(=O)O
# Test system: full thickness incision wounds in a rat model
# Experiment: Scar formation dose-response of NorLeu3-A(1-7) in 2.5% alginate crosslinked with 5 mM CaCl2 (Example 3)
# Type: in vivo, Sprague Dawley rats
# Conditions: 1 mg/ml in the formulation; compared with surgical and vehicle controls; day 21
# Experimental: This example was designed to determine the formation and remodeling of scar by clinical and histological evaluations in full thickness incision wounds in a rat model. Various doses of active ingredient were delivered in 2.5% alginate crosslinked with 5 mM CaCl2. • Species: • Sprague Dawley • Female (n=5/group for histology; 3/group for tensile strength) • Parameters Measured: • Appearance of Healing Wound (Gross and Histological of Dense Collagen by Image J) • Tensile Strength • Central, Blinded Adjudication of Photos on Day 21 • Photographic serial imaging • Experimental Groups: Surgical control, vehicle (2.5% alginate crosslinked with 5 mM CaCl2) and 2.5% alginate crosslinked with 5 mM CaCl2 with 0.3, 1, 3 or 5 mg/ml DSC127) Methods
# Alginate was supplied by FMC BioPolymer. […]
# During the experimental period, Sprague Dawley rats, 200-225 grams, were housed one per cage and maintained in a central animal care facility with a 12-hour light/dark cycle. […] The six tests groups that were evaluated are: surgical control, vehicle control and 30, 100, 300 or 500 μg/wound of NorLeu3-A(1-7) in the vehicle. […] The animals were monitored for breathing, urination and movement during the postoperative interval. […] During the first two weeks after surgery, scabbing, dehiscence and inflammation were assessed. […]
# Scabbing was assessed on a 4-point scale (0,1,2,3) for none, mild, moderate and severe, respectively. […]
compound,measurement,value
"CCCC[C@H](NC(=O)[C@H](CCCNC(=N)N)NC(=O)[C@@H](N)CC(=O)O)C(=O)N[C@@H](Cc1ccc(O)cc1)C(=O)N[C@H](C(=O)N[C@@H](Cc1c[nH]cn1)C(=O)N1CCC[C@H]1C(=O)O)[C@@H](C)CC [NorLeu3-A(1-7), Asp-Arg-Nle-Tyr-Ile-His-Pro] (H-DR[Nle]YIHP-OH; N-terminus and C-terminus assumed)",Inflammation at the site of the incision scored on histological sections,trend towards reduced inflammation
